Here are results for 5 compounds from publication PMC9655119, “Sustained Activation of CLR/RAMP Receptors by Gel-Forming Agonists” (International Journal of Molecular Sciences, 2022).

Structures are written as SMILES. Where two headings read alike, the source gives them in different places. Positions of bridges follow the written chain, without caps; N, C: chain ends. Non-standard residues stand in square brackets, D forms with d. Residues, ends and D or L forms follow the SMILES beside them. *: point of attachment. Palmitoyl = CCCCCCCCCCCCCCCC(=O)*; AEEA = NCCOCCOCC(=O)O

Holding throughout (type): cell-based
One experiment addresses T1, human CLR/RAMP1 (Homo sapiens, UniProt O60894+Q16602).
T1 construct: host or cells: 1321N1 cells (cAMP Hunter cell line)
In words: CLR/RAMP1 receptor-activation assay (DiscoverX cAMP Hunter, HitHunter cAMP XS+). The note with it: for Emax: read-out: CLR/RAMP1 Max Activity. Here is the method:
(§1) The bioactivity of peptide analogs was studied using CLR/RAMP1, CLR/RAMP2, and CLR/RAMP3 assays by DiscoveRx (Fremont, CA, USA) in cells that stably express human CLR/RAMP1 (1321N1 cells), CLR/RAMP2 (CHO-K1 cells), or CLR/RAMP3 (CHO-K1 cells). The dose-dependent stimulatory effect of agonists was studied in duplicate, at 10 different concentrations. Determination of the half-maximal effective concentration (EC50) was performed using a 10-point dose-response curves. The starting concentration was 1.0 μM, and it was serially diluted 3-fold, in DMSO.
Cells were seeded in a total volume of 20 μL into 384-well microplates, and the activity was determined using the DiscoverX HitHunter cAMP XS + assay. Before the assay, media was aspirated from cells and replaced with 15 μL 2:1 HBSS/10 mM Hepes: cAMP XS + Ab reagent. Intermediate dilution of samples was performed to generate 4X sample in assay buffer, and 5 μL of the 4X sample was added to cells and incubated at 37°C. Vehicle concentration was 1%.
The chemiluminescent signal was read with a PerkinElmer instrument.

A further experiment deals with T2, human CLR/RAMP2 (Homo sapiens, UniProt O60895+Q16602).
T2 construct: host or cells: CHO-K1 cells (PathHunter β-Arrestin cell line)
Put plainly: CLR/RAMP2 receptor-activation assay (PathHunter β-Arrestin). To be noted: […], read-out: CLR/RAMP2 Max Activity. As for the experimental part: as §1
In this assay, the CLR was fused in frame with a small enzyme donor fragment ProLink™ (PK). The receptor was co-expressed with a fusion protein of β-arrestin and an N-terminal deletion mutant of β-galactosidase (i.e., enzyme acceptor). Activation of the CLR/RAMP2 receptor stimulated the binding of β-arrestin to the PK-tagged receptor and led to an increase in enzyme activities which can then be measured with the PathHunter detection reagents. PathHunter cell lines were seeded in a total volume of 20 μL into 384-well microplates and incubated at 37 °C prior to the assay. Intermediate dilution of samples was performed to generate 5X samples in the assay buffer. A 5 μL aliquot of 5X sample was added to cells and incubated at 37 °C for 90 min. Vehicle concentration was 1%.

The test system of experiment [1] is primary human lymphatic microvascular endothelial (HLME) cells. In words: HLME cell proliferation (MTT assay). The note with it: 30, 100, 300 nmoles/L, medium with 2% FBS, 72 h, quintuplicate samples. Here is the method:
(§2) Primary human lymphatic microvascular endothelial cells (HLME cells; Cell Applications, Inc., San Diego, CA, USA) were maintained in a microvascular endothelial cell growth medium supplemented with 10% fetal bovine serum (FBS). […] After 72-h incubation, cell viability was determined with the 3-(4,5-dimethylthiazol-2-yl)-2,5-diphenyltetrazolium bromide (MTT) assay (Promega). To evaluate the effects on endothelial cell survival, HLME cells were treated with different concentrations of the agonist or controls (30, 100, and 300 nmoles/L) and cultured in a basal medium with 0.1% FBS for 72 h. Cell viability was then assayed with the MTT assay.

For experiment [2] the test system is unchanged. In words: HLME cell survival (MTT assay). The note with it: 30, 100, 300 nmoles/L, medium with 0.1% FBS, 72 h, quintuplicate samples. Here is the method: as §2
Setting [3] is: percentage of positive control β-CGRP.

T2 sequence (Q16602 23-461): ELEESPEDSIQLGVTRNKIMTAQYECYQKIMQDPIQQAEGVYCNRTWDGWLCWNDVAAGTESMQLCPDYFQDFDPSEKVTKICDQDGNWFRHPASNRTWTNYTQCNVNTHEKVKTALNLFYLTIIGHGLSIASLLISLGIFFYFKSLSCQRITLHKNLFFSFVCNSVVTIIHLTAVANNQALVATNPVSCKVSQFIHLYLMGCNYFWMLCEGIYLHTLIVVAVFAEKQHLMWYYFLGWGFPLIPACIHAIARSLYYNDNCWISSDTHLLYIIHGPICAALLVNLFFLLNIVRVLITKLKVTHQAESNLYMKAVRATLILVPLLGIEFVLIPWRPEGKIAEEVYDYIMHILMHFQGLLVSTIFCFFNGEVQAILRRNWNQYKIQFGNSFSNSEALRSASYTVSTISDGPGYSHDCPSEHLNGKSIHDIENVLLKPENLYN
T2 sequence (O60895 43-175): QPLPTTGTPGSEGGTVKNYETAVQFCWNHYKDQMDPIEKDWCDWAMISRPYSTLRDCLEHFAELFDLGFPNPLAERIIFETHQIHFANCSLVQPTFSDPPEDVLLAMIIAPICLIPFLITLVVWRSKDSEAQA
T1 sequence (Q16602 23-461): as the sequence (Q16602 23-461) above
T1 sequence (O60894 27-148): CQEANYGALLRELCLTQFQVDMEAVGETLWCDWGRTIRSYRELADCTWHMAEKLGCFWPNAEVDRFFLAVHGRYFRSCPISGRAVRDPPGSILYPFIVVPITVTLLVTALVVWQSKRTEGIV

As to `CC[C@H](C)[C@H](NC(=O)[C@H](CCC(N)=O)NC(=O)[C@H](Cc1c[nH]cn1)NC(=O)[C@H](C)NC(=O)[C@H](CC(C)C)NC(=O)[C@H](CCCCN)NC(=O)[C@H](CCC(N)=O)NC(=O)[C@@H](NC(=O)[C@@H](NC(=O)[C@@H]1CSSC[C@H](NC(=O)CNC(=O)[C@@H](N)Cc2ccccc2)C(=O)N[C@@H](CCCNC(=N)N)C(=O)N[C@@H](Cc2ccccc2)C(=O)NCC(=O)N[C@@H]([C@@H](C)O)C(=O)N1)[C@@H](C)O)C(C)C)C(=O)N[C@@H](Cc1ccc(O)cc1)C(=O)N[C@@H](CCC(N)=O)C(=O)N[C@@H](Cc1ccccc1)C(=O)N[C@H](C(=O)N[C@@H](CC(=O)O)C(=O)N[C@@H](CCCCN)C(=O)N[C@@H](CC(=O)O)C(=O)N[C@@H](CCCCN)C(=O)N[C@@H](CC(=O)O)C(=O)N[C@@H](CC(N)=O)C(=O)N[C@H](C(=O)N[C@@H](C)C(=O)N1CCC[C@H]1C(=O)N[C@@H](CCCNC(=N)N)C(=O)N[C@@H](CO)C(=O)N[C@@H](CCCCN)C(=O)N[C@H](C(=O)N[C@@H](CO)C(=O)N1CCC[C@H]1C(=O)N[C@@H](CCC(N)=O)C(=O)NCC(=O)N[C@@H](Cc1ccc(O)cc1)C(N)=O)[C@@H](C)CC)C(C)C)[C@@H](C)O` [ADM14-52, reference compound], the EC50 on human CLR/RAMP1 (1321N1 cells stably expressing human CLR/RAMP1, cAMP read-out, 10-point dose-response in duplicate, start 1.0 μM, 3-fold serial dilution in DMSO) was > 100 nM. The Emax at human CLR/RAMP1 (setting [3]) was found to be 69%; on human CLR/RAMP2 (percentage of positive control ADM1-52) it was 102%. Further, in experiment [1], the “effect on HLME cell proliferation” value was “minimal effects”. Also, in experiment [2], the “effect on HLME cell survival” value is “minimal effects”.
`CC[C@H](C)[C@H](NC(=O)[C@H](CCC(N)=O)NC(=O)[C@H](Cc1c[nH]cn1)NC(=O)[C@H](C)NC(=O)[C@H](CC(C)C)NC(=O)[C@H](CCCCN)NC(=O)[C@H](CCC(N)=O)NC(=O)[C@@H](NC(=O)[C@@H](NC(=O)[C@@H]1CSSC[C@H](NC(=O)CNC(=O)[C@H](Cc2ccccc2)NC(=O)[C@H](CO)NC(=O)[C@H](CCCNC(=N)N)NC(=O)[C@H](CC(C)C)NC(=O)CNC(=O)[C@H](CCC(N)=O)NC(=O)[C@H](Cc2ccccc2)NC(=O)[C@H](CC(N)=O)NC(=O)[C@H](CC(N)=O)NC(=O)[C@H](CCSC)NC(=O)[C@H](CO)NC(=O)[C@H](CCC(N)=O)NC(=O)[C@H](CCCNC(=N)N)NC(=O)[C@@H](N)Cc2ccc(O)cc2)C(=O)N[C@@H](CCCNC(=N)N)C(=O)N[C@@H](Cc2ccccc2)C(=O)NCC(=O)N[C@@H]([C@@H](C)O)C(=O)N1)[C@@H](C)O)C(C)C)C(=O)N[C@@H](Cc1ccc(O)cc1)C(=O)N[C@@H](CCC(N)=O)C(=O)N[C@@H](Cc1ccccc1)C(=O)N[C@H](C(=O)N[C@@H](CC(=O)O)C(=O)N[C@@H](CCCCN)C(=O)N[C@@H](CC(=O)O)C(=O)N[C@@H](CCCCN)C(=O)N[C@@H](CC(=O)O)C(=O)N[C@@H](CC(N)=O)C(=O)N[C@H](C(=O)N[C@@H](C)C(=O)N1CCC[C@H]1C(=O)N[C@@H](CCCNC(=N)N)C(=O)N[C@@H](CO)C(=O)N[C@@H](CCCCN)C(=O)N[C@H](C(=O)N[C@@H](CO)C(=O)N1CCC[C@H]1C(=O)N[C@@H](CCC(N)=O)C(=O)NCC(=O)N[C@@H](Cc1ccc(O)cc1)C(N)=O)[C@@H](C)CC)C(C)C)[C@@H](C)O` [ADM1-52]: at human CLR/RAMP1 (setting [3]), the Emax is 63%. For the same compound, the “effect on HLME cell proliferation” value in experiment [1] was “minimal effects”. In addition, the “effect on HLME cell survival” value in experiment [2] is reported as “minimal effects”.
For the compound `CCCCCCCCCCCCCCCC(=O)NCCCC[C@H](NC(=O)COCCOCCN)C(=O)N[C@H](C(=O)N[C@@H](CCCCN)C(=O)N[C@@H](CCCCN)C(=O)N[C@H](C(=O)N[C@@H](CC(C)C)C(=O)N[C@@H](CCCNC(=N)N)C(=O)N[C@H](C(=O)NCC(=O)N[C@H]1CSSC[C@@H](C(=O)N[C@H](C(=O)N[C@H](C(=O)N[C@@H](CCC(N)=O)C(=O)N[C@@H](CCCCN)C(=O)N[C@@H](CC(C)C)C(=O)N[C@@H](C)C(=O)N[C@@H](Cc2c[nH]cn2)C(=O)N[C@@H](CCC(N)=O)C(=O)N[C@H](C(=O)N[C@@H](Cc2ccc(O)cc2)C(=O)N[C@@H](CCC(N)=O)C(=O)N[C@@H](Cc2ccccc2)C(=O)N[C@H](C(=O)N[C@@H](CC(=O)O)C(=O)N[C@@H](CCCCN)C(=O)N[C@@H](CC(=O)O)C(=O)N[C@@H](CCCCN)C(=O)N[C@@H](CC(=O)O)C(=O)N[C@@H](CC(N)=O)C(=O)N[C@H](C(=O)N[C@@H](C)C(=O)N2CCC[C@H]2C(=O)N[C@@H](CCCNC(=N)N)C(=O)N[C@@H](CO)C(=O)N[C@@H](CCCCN)C(=O)N[C@H](C(=O)N[C@@H](CO)C(=O)N2CCC[C@H]2C(=O)N[C@@H](CCC(N)=O)C(=O)NCC(=O)N[C@@H](Cc2ccc(O)cc2)C(N)=O)[C@@H](C)CC)C(C)C)[C@@H](C)O)[C@@H](C)CC)C(C)C)[C@@H](C)O)NC(=O)[C@H]([C@@H](C)O)NC(=O)CNC(=O)[C@H](Cc2ccccc2)NC(=O)[C@H](CCCNC(=N)N)NC1=O)[C@@H](C)O)[C@@H](C)O)[C@@H](C)O` [Analog C-8], the Emax at human CLR/RAMP1 was 69%; on human CLR/RAMP2, 68%.
Take `CC[C@H](C)[C@H](NC(=O)[C@H](CCC(N)=O)NC(=O)[C@H](Cc1c[nH]cn1)NC(=O)[C@H](C)NC(=O)[C@H](CC(C)C)NC(=O)[C@H](CCCCN)NC(=O)[C@H](CCC(N)=O)NC(=O)[C@@H](NC(=O)[C@@H](NC(=O)[C@@H]1CSSC[C@H](NC(=O)CNC(=O)[C@H](CCCCN)NC(C)=O)C(=O)N[C@@H](CCCNC(=N)N)C(=O)N[C@@H](Cc2ccccc2)C(=O)NCC(=O)N[C@@H]([C@@H](C)O)C(=O)N1)[C@@H](C)O)C(C)C)C(=O)N[C@@H](Cc1ccc(O)cc1)C(=O)N[C@@H](CCC(N)=O)C(=O)N[C@@H](Cc1ccccc1)C(=O)N[C@H](C(=O)N[C@@H](CC(=O)O)C(=O)N[C@@H](CCCCN)C(=O)N[C@@H](CC(=O)O)C(=O)N[C@@H](CCCCN)C(=O)N[C@@H](CC(=O)O)C(=O)N[C@@H](CC(N)=O)C(=O)N[C@@H](CO)C(=O)N[C@@H](C)C(=O)N1CCC[C@H]1C(=O)N[C@H](C(=O)N[C@@H](CC(=O)O)C(=O)N1CCC[C@H]1C(=O)N[C@@H](CO)C(=O)N[C@@H](CO)C(=O)N1CCC[C@H]1C(=O)N[C@@H](Cc1c[nH]cn1)C(=O)N[C@@H](CO)C(=O)N[C@@H](Cc1ccc(O)cc1)C(N)=O)C(C)C)[C@@H](C)O` [Analog B-6]: the “effect on HLME cell survival” value in experiment [2] was “minimal effects”.
`CCCCCCCCCCCCCCCC(=O)NCCCC[C@H](NC(=O)COCCOCCN)C(=O)NCC(=O)N[C@H]1CSSC[C@@H](C(=O)N[C@H](C(=O)N[C@H](C(=O)N[C@@H](CCC(N)=O)C(=O)N[C@@H](CCCCN)C(=O)N[C@@H](CC(C)C)C(=O)N[C@@H](C)C(=O)N[C@@H](Cc2c[nH]cn2)C(=O)N[C@@H](CCC(N)=O)C(=O)N[C@H](C(=O)N[C@@H](Cc2ccc(O)cc2)C(=O)N[C@@H](CCC(N)=O)C(=O)N[C@@H](Cc2ccccc2)C(=O)N[C@H](C(=O)N[C@@H](CC(=O)O)C(=O)N[C@@H](CCCCN)C(=O)N[C@@H](CC(=O)O)C(=O)N[C@@H](CO)C(=O)N[C@@H](C)C(=O)N2CCC[C@H]2C(=O)N[C@H](C(=O)N[C@@H](CC(=O)O)C(=O)N2CCC[C@H]2C(=O)N[C@@H](CO)C(=O)N[C@@H](CO)C(=O)N2CCC[C@H]2C(=O)N[C@@H](Cc2c[nH]cn2)C(=O)N[C@@H](CO)C(=O)N[C@@H](Cc2ccc(O)cc2)C(N)=O)C(C)C)[C@@H](C)O)[C@@H](C)CC)C(C)C)[C@@H](C)O)NC(=O)[C@H]([C@@H](C)O)NC(=O)CNC(=O)[C@H](Cc2ccccc2)NC(=O)[C@H](CCCNC(=N)N)NC1=O` [Analog D-1] (H-[AEEA]K(Palmitoyl)GCRFGTCTVQKLAHQIYQFTDKDSAPVDPSSPHSY-NH2; disulfide 4-9): the Emax stood at 78% at human CLR/RAMP1 and 77% on human CLR/RAMP2.
